Assay results reported in ChEMBL document CHEMBL1921680, “Synthesis and antileishmanial evaluation of 1-aryl-4-(4,5-dihydro-1H-imidazol-2-yl)-1H-pyrazole derivatives” (Bioorg Med Chem Lett, 2011).
The source made the active and inactive calls. No cut-off for these calls is given here.

Legend:
Mus musculus [1] = experiment: Toxicity in CBA mouse infected with Leishmania amazonensis MHOM/ BR/77/LTB0016 assessed as weight loss at 50 mg/kg, po qd for 30 days administered 4 week post infection measured up to week 21; format: organism-based; parameters: dose 50 mg/kg, route oral; details: in vivo
Mus musculus [2] = experiment: Toxicity in CBA mouse infected with Leishmania amazonensis MHOM/ BR/77/LTB0016 assessed as change in monocytes count at 50 mg/kg, po qd for 30 days administered 4 week post infection measured up to week 21; format: organism-based; parameters: dose 50 mg/kg, route oral; details: in vivo
Leishmania amazonensis [3] = experiment: Antileishmanial activity against Leishmania amazonensis MHOM/ BR/77/LTB0016 infected in CBA mouse assessed as development of cutaneous lesions at 50 mg/kg, po qd for 30 days administered 4 weeks post infection measured up to week 21; format: functional, organism-based; parameters: dose 50 mg/kg
Mus musculus [4] = experiment: Toxicity in CBA mouse infected with Leishmania amazonensis MHOM/ BR/77/LTB0016 assessed as change in neutrophils count at 50 mg/kg, po qd for 30 days administered 4 week post infection measured up to week 21; format: organism-based; parameters: dose 50 mg/kg, route oral; details: in vivo
Mus musculus [5] = experiment: Toxicity in CBA mouse infected with Leishmania amazonensis MHOM/ BR/77/LTB0016 assessed as change in leukocytes count at 50 mg/kg, po qd for 30 days administered 4 week post infection measured up to week 21; format: organism-based; parameters: dose 50 mg/kg, route oral; details: in vivo
Leishmania braziliensis = experiment: Antileishmanial activity against extracellular promastigotes form of Leishmania braziliensis MCAN/BR/97/P142 after 24 hrs by neubauer chamber analysis; format: functional, organism-based; details: MCAN/BR/97/P142, 24 h
Leishmania amazonensis [6] = experiment: Antileishmanial activity against extracellular promastigotes form of Leishmania amazonensis MHOM/ BR/77/LTB0016 after 24 hrs by neubauer chamber analysis; format: functional, organism-based; details: MHOM/ BR/77/LTB0016, 24 h
Leishmania infantum = experiment: Antileishmanial activity against extracellular promastigotes form of Leishmania infantum MCAN/BR/98R619 after 24 hrs by neubauer chamber analysis; format: functional, organism-based; details: MCAN/BR/98R619, 24 h
[7] = Cytotoxicity against mouse peritoneal macrophages at IC50 for Leishmania amazonensis MHOM/ BR/77/LTB0016; format: cell-based; details: peritoneal macrophage cell
Mus musculus [8] = experiment: Hepatotoxicity in CBA mouse infected with promastigotes form of Leishmania amazonensis MHOM/ BR/77/LTB0016 assessed as change in ALT level at 100 umol/kg, po qd for 30 days administered 4 week post infection measured up to week 21; format: toxicity, organism-based; details: in vivo
Mus musculus [9] = experiment: Toxicity in CBA mouse infected with Leishmania amazonensis MHOM/ BR/77/LTB0016 assessed as change in monocytes count at 100 umol/kg, po qd for 30 days administered 4 week post infection measured up to week 21; format: organism-based; details: in vivo
Mus musculus [10] = experiment: Toxicity in CBA mouse infected with Leishmania amazonensis MHOM/ BR/77/LTB0016 assessed as weight loss at 29 to 100 umol/kg, po qd for 30 days administered 4 week post infection measured up to week 21; format: organism-based; details: in vivo
Mus musculus [11] = experiment: Toxicity in CBA mouse infected with Leishmania amazonensis MHOM/ BR/77/LTB0016 assessed as change in leukocytes count at 100 umol/kg, po qd for 30 days administered 4 week post infection measured up to week 21; format: organism-based; details: in vivo
Mus musculus [12] = experiment: Renal toxicity in CBA mouse infected with promastigotes form of Leishmania amazonensis MHOM/ BR/77/LTB0016 assessed as change in creatinine level at 100 umol/kg, po qd for 30 days administered 4 week post infection measured up to week 21; format: organism-based; details: in vivo
Mus musculus [13] = experiment: Toxicity in CBA mouse infected with Leishmania amazonensis MHOM/ BR/77/LTB0016 assessed as change in neutrophils count at 100 umol/kg, po qd for 30 days administered 4 week post infection measured up to week 21; format: organism-based; details: in vivo
Mus musculus [14] = experiment: Hepatotoxicity in CBA mouse infected with promastigotes form of Leishmania amazonensis MHOM/ BR/77/LTB0016 assessed as change in AST level at 100 umol/kg, po qd for 30 days administered 4 week post infection measured up to week 21; format: toxicity, organism-based; details: in vivo
Leishmania amazonensis [15] = experiment: Antileishmanial activity against Leishmania amazonensis MHOM/ BR/77/LTB0016 infected in CBA mouse assessed as development of cutaneous lesions at 100 umol/kg, po qd for 30 days administered 4 weeks post infection measured up to week 21; format: functional, organism-based

CC(=O)N1CCN(c2ccc(OCC3COC(Cn4ccnc4)(c4ccc(Cl)cc4Cl)O3)cc2)CC1 (centres undefined) [KETOCONAZOLE]
Activity (Mus musculus [1]): Non-toxic
Activity (Mus musculus [2]): Non-toxic
Activity (Leishmania amazonensis [3]): Active
Activity (Mus musculus [4]): Non-toxic
Activity (Mus musculus [5]): Non-toxic

Nc1c(C2=NCCN2)cnn1-c1cccc(F)c1
IC50 (Leishmania braziliensis): > 500 µM
IC50 (Leishmania amazonensis [6]): > 500 µM
IC50 (Leishmania infantum): > 500 µM

Nc1c(C2=NCCN2)cnn1-c1ccc(Cl)c(Cl)c1
IC50 (Leishmania amazonensis [6]): 381 µM
Activity [7]: 15.5%

Nc1c(C2=NCCN2)cnn1-c1cc(Cl)cc(Cl)c1
Activity (Mus musculus [8]): Non-toxic
IC50 (Leishmania braziliensis): 437 µM
IC50 (Leishmania amazonensis [6]): 15.5 µM
Activity (Mus musculus [9]): Non-toxic
Activity (Mus musculus [10]): Non-toxic
Activity (Mus musculus [11]): Non-toxic
Activity (Mus musculus [12]): Non-toxic
Activity (Mus musculus [13]): Non-toxic
Activity (Mus musculus [14]): Non-toxic
Activity (Leishmania amazonensis [15]): Active
IC50 (Leishmania infantum): > 500 µM

Nc1c(C2=NCCN2)cnn1-c1ccccc1
IC50 (Leishmania braziliensis): 433 µM
IC50 (Leishmania amazonensis [6]): 365 µM
IC50 (Leishmania infantum): > 500 µM

Nc1c(C2=NCCN2)cnn1-c1cccc(Br)c1
IC50 (Leishmania amazonensis [6]): 31.3 µM

Brc1ccc(-n2cc(C3=NCCN3)cn2)cc1
IC50 (Leishmania amazonensis [6]): 30 µM
Activity [7]: 3.52%
IC50 (Leishmania infantum): > 500 µM

Clc1ccc(-n2cc(C3=NCCN3)cn2)cc1Cl
IC50 (Leishmania amazonensis [6]): 297 µM
Activity [7]: 5.32%
IC50 (Leishmania infantum): > 500 µM

N=C(N)c1ccc(OCCCCCOc2ccc(C(=N)N)cc2)cc1 [PENTAMIDINE]
IC50 (Leishmania braziliensis): 50 µM
IC50 (Leishmania amazonensis [6]): 10 µM
Activity [7]: 31%
IC50 (Leishmania infantum): 100 µM

c1ccc(-n2cc(C3=NCCN3)cn2)cc1
IC50 (Leishmania braziliensis): > 500 µM
IC50 (Leishmania amazonensis [6]): 43 µM
Activity [7]: 11.26%
IC50 (Leishmania infantum): > 500 µM

Clc1cccc(-n2cc(C3=NCCN3)cn2)c1
IC50 (Leishmania braziliensis): > 500 µM
IC50 (Leishmania amazonensis [6]): 60 µM
Activity [7]: 6.46%
IC50 (Leishmania infantum): > 500 µM

Fc1cccc(-n2cc(C3=NCCN3)cn2)c1
IC50 (Leishmania amazonensis [6]): 54 µM
IC50 (Leishmania infantum): > 500 µM

Nc1c(C2=NCCN2)cnn1-c1cccc(Cl)c1
IC50 (Leishmania braziliensis): > 500 µM
IC50 (Leishmania amazonensis [6]): > 500 µM
Activity [7]: 15.2%
IC50 (Leishmania infantum): > 500 µM

Brc1cccc(-n2cc(C3=NCCN3)cn2)c1
IC50 (Leishmania amazonensis [6]): > 500 µM
Activity [7]: 11.98%
IC50 (Leishmania infantum): > 500 µM

Nc1c(C2=NCCN2)cnn1-c1ccc(Br)cc1
IC50 (Leishmania braziliensis): 272 µM
IC50 (Leishmania amazonensis [6]): > 500 µM
IC50 (Leishmania infantum): > 500 µM

Clc1cc(Cl)cc(-n2cc(C3=NCCN3)cn2)c1
IC50 (Leishmania braziliensis): 459 µM
IC50 (Leishmania amazonensis [6]): > 500 µM
Activity [7]: 3.97%
IC50 (Leishmania infantum): > 500 µM
